# Measured values: the supplement of paper PMC10307832
# Key:
# Experiment in all cases: relative viability (nuclei count vs DMSO), 5 days (fraction); higher = more cells survive
# [1] = compound: O=S(=O)(c1ccccc1)N(CC(F)(F)F)c1ccc(C(O)(C(F)(F)F)C(F)(F)F)cc1 + COc1cc2c(Oc3ccc(NC(=O)C4(C(=O)Nc5ccc(F)cc5)CC4)cc3F)ccnc2cc1OCCCN1CCOCC1 [Foretinib] (partner 0.25 µM)
# How it was run: (§1)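 For relative viability, nuclei counts in treated wells were divided by those in vehicle wells. Lung cancer cell lines had been pin-tool dosed in 1536-well plates the day after seeding and cultured for 5 days, then fixed and stained in one step (final 0.05% Triton X-100, 1% formaldehyde, 1 ug/ml Hoechst) and imaged at 4×. Doses were one drug alone or a fixed anchor-drug dose plus five library-drug doses (not always all listed) in √10 steps, and values are duplicate-plate medians.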
# [2] = compound: O=S(=O)(c1ccccc1)N(CC(F)(F)F)c1ccc(C(O)(C(F)(F)F)C(F)(F)F)cc1 + NC(=O)Nc1cc(-c2cccc(F)c2)sc1C(=O)N[C@H]1CCCNC1 [AZD7762] (partner 0.2 µM)
# How it was run: as §1
# [3] = compound: O=S(=O)(c1ccccc1)N(CC(F)(F)F)c1ccc(C(O)(C(F)(F)F)C(F)(F)F)cc1 + Nc1nc2[nH]cc(CCc3ccc(C(=O)N[C@@H](CCC(=O)O)C(=O)O)cc3)c2c(=O)[nH]1 [Pemetrexed] (partner 0.2 µM)
# How it was run: as §1
# [4] = compound: O=S(=O)(c1ccccc1)N(CC(F)(F)F)c1ccc(C(O)(C(F)(F)F)C(F)(F)F)cc1 + O=C(CCCCCCC(=O)Nc1ccccc1)NO [Vorinostat] (partner 1 µM)
# How it was run: as §1
# RO-3306 + Alpelisib = compound: C1=CC2=C(C=CC(=C2)C=C3C(=O)NC(=NCC4=CC=CS4)S3)N=C1 [RO-3306] + Cc1nc(NC(=O)N2CCC[C@H]2C(N)=O)sc1-c1ccnc(C(C)(C)C(F)(F)F)c1 [Alpelisib] (partner 2 µM)
# How it was run: as §1
cell line,measurement,setting,value
201T,relative viability,[1]; first compound 0.8 µM,1.1
same,relative viability,[1]; first compound 2.53 µM,0.968
same,relative viability,[1]; first compound 8 µM,0.92
same,relative viability,[2]; first compound 0.8 µM,0.797
same,relative viability,[2]; first compound 2.53 µM,0.617
same,relative viability,[2]; first compound 8 µM,0.637
same,relative viability,[3]; first compound 0.8 µM,0.331
same,relative viability,[3]; first compound 2.53 µM,0.343
same,relative viability,[3]; first compound 8 µM,0.401
same,relative viability,[4]; first compound 0.8 µM,0.953
same,relative viability,[4]; first compound 2.53 µM,0.918
same,relative viability,[4]; first compound 8 µM,0.865
same,relative viability,RO-3306 + Alpelisib; first compound 0.01 µM,1.03
same,relative viability,RO-3306 + Alpelisib; first compound 0.03162 µM,1.01
same,relative viability,RO-3306 + Alpelisib; first compound 0.1 µM,1.05
same,relative viability,RO-3306 + Alpelisib; first compound 0.3162 µM,0.973
same,relative viability,RO-3306 + Alpelisib; first compound 1 µM,1.04
A549,relative viability,[1]; first compound 0.8 µM,0.962
same,relative viability,[1]; first compound 2.53 µM,0.944
same,relative viability,[1]; first compound 8 µM,0.752
same,relative viability,RO-3306 + Alpelisib; first compound 0.01 µM,0.744
same,relative viability,RO-3306 + Alpelisib; first compound 0.1 µM,0.72
same,relative viability,RO-3306 + Alpelisib; first compound 0.3162 µM,0.756
same,relative viability,RO-3306 + Alpelisib; first compound 1 µM,0.715
A-427,relative viability,[1]; first compound 0.8 µM,1.1
same,relative viability,[1]; first compound 2.53 µM,0.967
same,relative viability,[1]; first compound 8 µM,1.09
same,relative viability,[2]; first compound 0.8 µM,0.879
same,relative viability,[2]; first compound 2.53 µM,0.734
same,relative viability,[2]; first compound 8 µM,0.695
same,relative viability,[3]; first compound 0.8 µM,0.939
same,relative viability,[3]; first compound 2.53 µM,0.937
same,relative viability,[3]; first compound 8 µM,1.05
same,relative viability,[4]; first compound 0.8 µM,0.85
same,relative viability,[4]; first compound 2.53 µM,0.803
same,relative viability,[4]; first compound 8 µM,0.812
same,relative viability,RO-3306 + Alpelisib; first compound 0.01 µM,1.13
same,relative viability,RO-3306 + Alpelisib; first compound 0.03162 µM,0.575
same,relative viability,RO-3306 + Alpelisib; first compound 0.1 µM,1
same,relative viability,RO-3306 + Alpelisib; first compound 0.3162 µM,1.06
same,relative viability,RO-3306 + Alpelisib; first compound 1 µM,1.02
ABC-1,relative viability,[1]; first compound 0.8 µM,1.31
same,relative viability,[1]; first compound 2.53 µM,1.19
same,relative viability,[1]; first compound 8 µM,1.08
same,relative viability,[2]; first compound 0.8 µM,0.709
same,relative viability,[2]; first compound 2.53 µM,1.64
same,relative viability,[2]; first compound 8 µM,1.2
same,relative viability,[4]; first compound 2.53 µM,0.882
same,relative viability,[4]; first compound 8 µM,0.912
same,relative viability,RO-3306 + Alpelisib; first compound 0.01 µM,1.07
same,relative viability,RO-3306 + Alpelisib; first compound 0.03162 µM,1.07
same,relative viability,RO-3306 + Alpelisib; first compound 0.1 µM,1.22
same,relative viability,RO-3306 + Alpelisib; first compound 0.3162 µM,0.939
same,relative viability,RO-3306 + Alpelisib; first compound 1 µM,1.22
BEN,relative viability,[1]; first compound 0.8 µM,0.568
same,relative viability,[1]; first compound 2.53 µM,0.527
same,relative viability,[1]; first compound 8 µM,0.578
same,relative viability,[2]; first compound 0.8 µM,0.724
same,relative viability,[2]; first compound 2.53 µM,0.717
same,relative viability,[2]; first compound 8 µM,0.689
same,relative viability,[3]; first compound 0.8 µM,0.702
same,relative viability,[3]; first compound 2.53 µM,0.742
same,relative viability,[3]; first compound 8 µM,0.972
same,relative viability,[4]; first compound 0.8 µM,0.581
same,relative viability,[4]; first compound 2.53 µM,0.543
same,relative viability,[4]; first compound 8 µM,0.566
same,relative viability,RO-3306 + Alpelisib; first compound 0.01 µM,1.3
same,relative viability,RO-3306 + Alpelisib; first compound 0.03162 µM,0.738
same,relative viability,RO-3306 + Alpelisib; first compound 0.1 µM,0.926
same,relative viability,RO-3306 + Alpelisib; first compound 0.3162 µM,1.09
same,relative viability,RO-3306 + Alpelisib; first compound 1 µM,1.08
CAL-12T,relative viability,[1]; first compound 0.8 µM,1.06
same,relative viability,[1]; first compound 2.53 µM,0.962
same,relative viability,[1]; first compound 8 µM,0.936
same,relative viability,[2]; first compound 0.8 µM,0.482
same,relative viability,[2]; first compound 2.53 µM,0.566
same,relative viability,[2]; first compound 8 µM,0.522
same,relative viability,[3]; first compound 0.8 µM,1.29
same,relative viability,[3]; first compound 2.53 µM,1.06
same,relative viability,[3]; first compound 8 µM,0.982
same,relative viability,[4]; first compound 0.8 µM,0.672
same,relative viability,[4]; first compound 2.53 µM,0.578
same,relative viability,[4]; first compound 8 µM,0.548
same,relative viability,RO-3306 + Alpelisib; first compound 0.01 µM,1.38
same,relative viability,RO-3306 + Alpelisib; first compound 0.03162 µM,1.26
same,relative viability,RO-3306 + Alpelisib; first compound 0.1 µM,1.17
same,relative viability,RO-3306 + Alpelisib; first compound 0.3162 µM,1.19
same,relative viability,RO-3306 + Alpelisib; first compound 1 µM,1.37
COR-L23,relative viability,[1]; first compound 0.8 µM,0.971
same,relative viability,[1]; first compound 2.53 µM,1.01
same,relative viability,[1]; first compound 8 µM,0.888
same,relative viability,[3]; first compound 0.8 µM,0.2
same,relative viability,[3]; first compound 2.53 µM,0.193
same,relative viability,[3]; first compound 8 µM,0.208
same,relative viability,[4]; first compound 0.8 µM,0.522
same,relative viability,[4]; first compound 2.53 µM,0.543
same,relative viability,[4]; first compound 8 µM,0.423
same,relative viability,RO-3306 + Alpelisib; first compound 0.01 µM,0.898
same,relative viability,RO-3306 + Alpelisib; first compound 0.1 µM,0.866
same,relative viability,RO-3306 + Alpelisib; first compound 0.3162 µM,0.631
same,relative viability,RO-3306 + Alpelisib; first compound 1 µM,0.75
COR-L 105,relative viability,[1]; first compound 0.8 µM,1.13
same,relative viability,[1]; first compound 2.53 µM,0.852
same,relative viability,[1]; first compound 8 µM,1.48
same,relative viability,[3]; first compound 0.8 µM,1.34
same,relative viability,[3]; first compound 2.53 µM,1.06
same,relative viability,[3]; first compound 8 µM,0.988
same,relative viability,[4]; first compound 0.8 µM,0.615
same,relative viability,[4]; first compound 2.53 µM,0.706
same,relative viability,[4]; first compound 8 µM,0.66
same,relative viability,RO-3306 + Alpelisib; first compound 0.01 µM,1.36
same,relative viability,RO-3306 + Alpelisib; first compound 0.03162 µM,0.835
same,relative viability,RO-3306 + Alpelisib; first compound 0.1 µM,1.06
same,relative viability,RO-3306 + Alpelisib; first compound 0.3162 µM,1.09
same,relative viability,RO-3306 + Alpelisib; first compound 1 µM,0.998
Calu-6,relative viability,[1]; first compound 0.8 µM,0.822
same,relative viability,[1]; first compound 2.53 µM,0.809
same,relative viability,[1]; first compound 8 µM,0.768
same,relative viability,RO-3306 + Alpelisib; first compound 0.01 µM,1.21
same,relative viability,RO-3306 + Alpelisib; first compound 0.03162 µM,0.91
same,relative viability,RO-3306 + Alpelisib; first compound 0.1 µM,1.04
same,relative viability,RO-3306 + Alpelisib; first compound 0.3162 µM,0.931
same,relative viability,RO-3306 + Alpelisib; first compound 1 µM,0.982
ChaGo-K-1,relative viability,[1]; first compound 0.8 µM,1.04
same,relative viability,[1]; first compound 2.53 µM,0.84
same,relative viability,[1]; first compound 8 µM,0.818
same,relative viability,[2]; first compound 0.8 µM,0.952
same,relative viability,[2]; first compound 2.53 µM,0.888
same,relative viability,[2]; first compound 8 µM,0.791
same,relative viability,[3]; first compound 0.8 µM,0.263
same,relative viability,[3]; first compound 2.53 µM,0.264
same,relative viability,[3]; first compound 8 µM,0.272
same,relative viability,[4]; first compound 0.8 µM,0.885
same,relative viability,[4]; first compound 2.53 µM,0.732
same,relative viability,[4]; first compound 8 µM,0.655
EBC-1,relative viability,[1]; first compound 0.8 µM,0.0993
same,relative viability,[1]; first compound 2.53 µM,0.114
same,relative viability,[1]; first compound 8 µM,0.126
same,relative viability,RO-3306 + Alpelisib; first compound 0.01 µM,0.895
same,relative viability,RO-3306 + Alpelisib; first compound 0.03162 µM,0.727
same,relative viability,RO-3306 + Alpelisib; first compound 0.1 µM,1.04
same,relative viability,RO-3306 + Alpelisib; first compound 0.3162 µM,0.965
same,relative viability,RO-3306 + Alpelisib; first compound 1 µM,0.904
EKVX,relative viability,[1]; first compound 0.8 µM,0.751
same,relative viability,[1]; first compound 2.53 µM,0.479
same,relative viability,[1]; first compound 8 µM,0.82
same,relative viability,[2]; first compound 0.8 µM,0.664
same,relative viability,[2]; first compound 2.53 µM,0.708
same,relative viability,[2]; first compound 8 µM,0.503
same,relative viability,[3]; first compound 0.8 µM,0.388
same,relative viability,[3]; first compound 2.53 µM,0.362
same,relative viability,[3]; first compound 8 µM,0.292
same,relative viability,[4]; first compound 0.8 µM,0.697
same,relative viability,[4]; first compound 2.53 µM,0.513
same,relative viability,[4]; first compound 8 µM,0.535
same,relative viability,RO-3306 + Alpelisib; first compound 0.01 µM,0.958
same,relative viability,RO-3306 + Alpelisib; first compound 0.03162 µM,0.833
same,relative viability,RO-3306 + Alpelisib; first compound 0.1 µM,0.841
same,relative viability,RO-3306 + Alpelisib; first compound 0.3162 µM,1.02
same,relative viability,RO-3306 + Alpelisib; first compound 1 µM,0.83
